Measured values published in paper PMC5126668 (PeerJ, 2016).
Several values for one entry are separate records, joined by “and”; a condition that tells them apart may be missing. Equal values may be shown once. Read-outs that look alike come from different tables or passages of the source.

Assays:
CYP1A2 = target: T1, CYP1A2 (Homo sapiens, UniProt P05177); assay: Inhibition of CYP activities by GA in HLMs (phenacetin); format: biochemical
T1 construct: tissue iPhase Pharmaceutical Services (Beijing, China) Lot # 7MMC011; host or cells: pooled human liver microsomes
T1 sequence (P05177 1-516): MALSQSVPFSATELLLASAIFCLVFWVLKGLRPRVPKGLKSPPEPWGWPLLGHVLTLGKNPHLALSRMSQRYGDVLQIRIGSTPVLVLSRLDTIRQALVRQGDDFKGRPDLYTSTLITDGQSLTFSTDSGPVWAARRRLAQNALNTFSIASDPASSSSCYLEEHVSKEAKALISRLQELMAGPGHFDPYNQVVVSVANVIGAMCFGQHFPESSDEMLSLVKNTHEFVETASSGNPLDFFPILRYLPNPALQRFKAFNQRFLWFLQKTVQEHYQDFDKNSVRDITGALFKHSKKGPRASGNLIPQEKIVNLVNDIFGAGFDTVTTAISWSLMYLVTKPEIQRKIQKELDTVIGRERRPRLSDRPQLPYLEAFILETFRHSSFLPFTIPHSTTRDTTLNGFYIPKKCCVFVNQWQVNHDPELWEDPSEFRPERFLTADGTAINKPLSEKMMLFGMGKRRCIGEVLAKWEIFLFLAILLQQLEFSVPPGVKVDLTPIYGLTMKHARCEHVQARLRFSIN
Description: (§1) The samples containing HLMs were prepared in an ice bath, and three replicates of each dose were tested.
(§2) The reaction system consisted of 0.5 g/L HLMs, 1 mM NADPH, 25 µM phenacetin (CYP1A2 substrate), 25 µM tolbutamide (CYP2C9 substrate), 25 µM mephenytoin (CYP2C19 substrate), 10 µM dextromethorphan (CYP2D6 substrate) and 10 µM midazolam (CYP3A4 substrate). After incubation at 37 °C for 30 min, 200 µL of methanol containing 100 µg/L propranolol hydrochloride was added to terminate the reaction. The samples were then treated, and the corresponding substrate metabolites of CYP isoforms were detected according to a previously described method ([Shen et al., 2013]).

CYP3A4 = target: T2, CYP3A4 (Homo sapiens, UniProt P08684); assay: Inhibition of CYP activities by GA in HLMs (midazolam); format: biochemical
T2 construct: was investigated in HLMs; tissue iPhase Pharmaceutical Services (Beijing, China) Lot # 7MMC011; host or cells: pooled human liver microsomes
Description: as §1, §2

[1] = Toxicokinetics of BAK in rat plasma after a single oral dose; format: in vivo, Sprague–Dawley rats
Description: ABT, a broad-spectrum nonspecific CYP inhibitor, was selected as a positive control inhibitor of CYP enzymes. Aristolochic acid A (AA I) was selected as the nephrotoxicity positive control in the study.
The plasma samples were separated by centrifugation at 4000 rpm for 15 min. […] Subsequently, 10 µL of internal standard solution (tanshinone II A, 10 µg/mL) and 0.3 mL of acetonitrile were added to 0.1 mL of plasma or homogenates, and centrifuged at 13,300 rpm for 15 min after 2 min of vortexing. The supernatant was reconstituted in 100 µL of mobile phase after drying under 40 °C nitrogen, the mixture then was vortexed for 5 min and centrifuged at 13,300 rpm for 15 min. Finally, 20 µL of supernatant was injected for HPLC analysis.
The mobile phase consisted of methanol and water with 0.1% formic acid (89:11, v/v) and was supplied at a flow rate of 0.8 mL/min. The detection wavelength was set to 262 nm.

[2] = Sprague-Dawley, plasma, rat, single oral, BAK 200 mg/kg, with ABT or GA 100 mg/kg where named
[3] = rat, single oral, BAK 200 mg/kg, with ABT or GA 100 mg/kg where named

T2 sequence (P08684 whole entry): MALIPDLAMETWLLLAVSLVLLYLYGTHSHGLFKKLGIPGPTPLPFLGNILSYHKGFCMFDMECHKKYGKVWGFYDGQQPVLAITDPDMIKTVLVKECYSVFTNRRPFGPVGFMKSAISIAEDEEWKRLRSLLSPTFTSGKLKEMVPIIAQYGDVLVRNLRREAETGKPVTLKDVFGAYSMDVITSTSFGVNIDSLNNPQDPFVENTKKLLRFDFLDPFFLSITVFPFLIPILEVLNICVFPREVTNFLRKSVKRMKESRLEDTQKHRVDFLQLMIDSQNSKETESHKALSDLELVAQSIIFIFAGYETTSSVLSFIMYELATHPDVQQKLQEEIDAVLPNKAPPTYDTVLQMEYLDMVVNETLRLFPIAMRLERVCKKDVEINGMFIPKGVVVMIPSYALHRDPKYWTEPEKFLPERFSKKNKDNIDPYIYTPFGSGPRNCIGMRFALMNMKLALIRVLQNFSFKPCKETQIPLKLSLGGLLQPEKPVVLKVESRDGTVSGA

CC1(C)[C@@H](O)CC[C@]2(C)[C@H]3C(=O)C=C4[C@@H]5C[C@@](C)(C(=O)O)CC[C@]5(C)CC[C@@]4(C)[C@]3(C)CC[C@@H]12 [GA, Glycyrrhetinic acid]
IC50 (CYP1A2; HLMs, 30 min pre-incubation with NADPH, phenacetin 25 µM): 61.1 ± 1.13 µM
activity at 30 min, 156.25 µM (CYP1A2; human, human liver microsomes (HLMs), probe phenacetin 25 µM, CYP1A2-30min, GA 156.2500, vs control, read-out: Relative activity (%)): 18.2%
activity at 30 min, 312.5 µM (CYP1A2; human, human liver microsomes, probe phenacetin 25 µM, CYP1A2-30min, GA 312.5000, vs control, read-out: Relative activity (%)): 14.1%
activity at 30 min, 1000 µM (CYP1A2; human, human liver microsomes, probe phenacetin 25 µM, CYP1A2-30min, GA 1000.0000, vs control, read-out: Relative activity (%)): 5.73%
activity at 30 min, […] (CYP1A2; human, human liver microsomes, probe phenacetin 25 µM, read-out: Relative activity (%)): 10.3%
activity at 30 min, 0.1 µM (CYP1A2; human, human liver microsomes, probe phenacetin (25 µM), CYP1A2-30min, GA 0.1000, vs control, read-out: Relative activity (%)): 95%
activity at 30 min, 1 µM (CYP1A2; human, human liver microsomes, probe phenacetin (25 µM), CYP1A2-30min, GA 1.0000, vs control, read-out: Relative activity (%)): 84.3%
activity at 30 min, 6.25 µM (CYP1A2; human, human liver microsomes, probe phenacetin (25 µM), CYP1A2-30min, GA 6.2500, vs control, read-out: Relative activity (%)): 89.2%
activity at 30 min, 31.25 µM (CYP1A2; human, human liver microsomes, probe phenacetin (25 µM), CYP1A2-30min, GA 31.2500, vs control, read-out: Relative activity (%)): 70.9%
activity at 30 min, 100 µM (CYP1A2; human, human liver microsomes, probe phenacetin (25 µM), CYP1A2-30min, GA 100.0000, vs control, read-out: Relative activity (%)): 31%
IC50 (CYP3A4; HLMs, 30 min pre-incubation with NADPH, midazolam 10 µM, µM): 1.53 ± 2.25 µM
activity at 30 min, 0.1 µM (CYP3A4; human, human liver microsomes, probe midazolam (10 µM), CYP3A4-30min, GA 0.10, vs control, read-out: Relative activity (%)): 95.9%
activity at 30 min, 1 µM (CYP3A4; human, human liver microsomes, probe midazolam (10 µM), CYP3A4-30min, GA 1.00, vs control, read-out: Relative activity (%)): 64.6%
activity at 30 min, 6.25 µM (CYP3A4; human, human liver microsomes, probe midazolam (10 µM), CYP3A4-30min, GA 6.25, vs control, read-out: Relative activity (%)): 39.1%
activity at 30 min, 31.25 µM (CYP3A4; human, human liver microsomes, probe midazolam (10 µM), CYP3A4-30min, GA 31.25, vs control, read-out: Relative activity (%)): 13.5%
activity at 30 min, 100 µM (CYP3A4; human, human liver microsomes, probe midazolam (10 µM), CYP3A4-30min, GA 100.00, vs control, read-out: Relative activity (%)): 15.2%
activity at 30 min, 156.25 µM (CYP3A4; human, human liver microsomes, probe midazolam (10 µM), CYP3A4-30min, GA 156.25, vs control, read-out: Relative activity (%)): 13.1%
activity at 30 min, 312.5 µM (CYP3A4; human, human liver microsomes, probe midazolam (10 µM), CYP3A4-30min, GA 312.50, vs control, read-out: Relative activity (%)): 0.261%
activity at 30 min, 1000 µM (CYP3A4; human, human liver microsomes, probe midazolam (10 µM), CYP3A4-30min, GA 1000.00, vs control, read-out: Relative activity (%)): 0.298%
activity at 30 min, […] (CYP3A4; human, human liver microsomes, probe midazolam (10 µM), read-out: Relative activity (%)): 3.63%

C=C[C@@](C)(/C=C/c1ccc(O)cc1)CCC=C(C)C [BAK, Bakuchiol]
BAK concentration in rat plasma, single rats 1-5 ([1]; 0.083 h after single oral dose): 19.440 ng/mL and 20.126 ng/mL and 124.551 ng/mL and 203.437 ng/mL and 45.002 ng/mL
BAK concentration in rat plasma, single rats 1-5 ([1]; 0.500 h after single oral dose): 298.348 ng/mL and 315.739 ng/mL and 248.132 ng/mL and 249.198 ng/mL
BAK concentration in rat plasma, single rats 1-5 ([1]; 1.000 h after single oral dose): 370.910 ng/mL and 622.012 ng/mL and 388.077 ng/mL and 359.422 ng/mL and 237.838 ng/mL
BAK concentration in rat plasma, single rats 1-5 ([1]; 2.000 h after single oral dose): 741.835 ng/mL and 1388.336 ng/mL and 509.873 ng/mL and 610.667 ng/mL and 641.059 ng/mL
BAK concentration in rat plasma, single rats 1-5 ([1]; 4.000 h after single oral dose): 1167.913 ng/mL and 614.550 ng/mL and 628.766 ng/mL and 924.718 ng/mL
BAK concentration in rat plasma, single rats 1-5 ([1]; 8.000 h after single oral dose): 297.448 ng/mL and 580.240 ng/mL and 453.584 ng/mL and 180.567 ng/mL and 336.676 ng/mL
BAK concentration in rat plasma, single rats 1-5 ([1]; 12.00 h after single oral dose): 101.667 ng/mL and 221.273 ng/mL and 140.087 ng/mL and 93.481 ng/mL and 214.562 ng/mL
BAK concentration in rat plasma, single rats 1-5 ([1]; 24.00 h after single oral dose): 76.407 ng/mL and 58.961 ng/mL and 54.579 ng/mL and 73.723 ng/mL
Cmax [1, 2]: 887 ± 281 ng/mL
MRT [1, 2]: 6.79 ± 0.43 h
Tmax [1, 2]: 3.6 ± 0.89 h
AUC(0-t) ([1]; Sprague-Dawley, plasma, rat, single oral, BAK 200 mg/kg, with ABT or GA 100 mg/kg where named, read-out: AUC0−24 of BAK): 7260 ng·h/mL
concentration at 0.083 h ([1]; Sprague-Dawley, rat, plasma, po, 200 mg/kg, 0.083 h after single oral dose): 82.5 ng/mL
concentration at 0.5 h ([1]; Sprague-Dawley, rat, plasma, po, 200 mg/kg, 0.500 h after single oral dose, read-out: BAK concentration in rat plasma, mean): 273 ng/mL
concentration at 0.5 h ([1]; Sprague-Dawley, rat, plasma, po, 200 mg/kg, 0.500 h after single oral dose, read-out: BAK concentration in rat plasma, single rats 1-5): 256 ng/mL
concentration at 1 h ([1]; Sprague-Dawley, rat, plasma, po, 200 mg/kg, 1.000 h after single oral dose): 396 ng/mL
concentration at 2 h ([1]; Sprague-Dawley, rat, plasma, po, 200 mg/kg, 2.000 h after single oral dose): 778 ng/mL
concentration at 4 h ([1]; Sprague-Dawley, rat, plasma, po, 200 mg/kg, 4.000 h after single oral dose, read-out: BAK concentration in rat plasma, mean): 843 ng/mL
concentration at 4 h ([1]; Sprague-Dawley, rat, plasma, po, 200 mg/kg, 4.000 h after single oral dose, read-out: BAK concentration in rat plasma, single rats 1-5): 881 ng/mL
concentration at 8 h ([1]; Sprague-Dawley, rat, plasma, po, 200 mg/kg, 8.000 h after single oral dose): 370 ng/mL
concentration at 12 h ([1]; Sprague-Dawley, rat, plasma, po, 200 mg/kg, 12.00 h after single oral dose): 154 ng/mL
concentration at 24 h ([1]; Sprague-Dawley, rat, plasma, po, 200 mg/kg, 24.00 h after single oral dose, read-out: BAK concentration in rat plasma, mean): 68.1 ng/mL
concentration at 24 h ([1]; Sprague-Dawley, rat, plasma, po, 200 mg/kg, 24.00 h after single oral dose, read-out: BAK concentration in rat plasma, single rats 1-5): 76.9 ng/mL
concentration at 24 h ([1]; Sprague-Dawley, rat, plasma, po, 200 mg/kg, rat, 24 h after single oral dose, read-out: Exposure of BAK, Plasma, mean): 68.1 ng/g
concentration at 24 h ([1]; Sprague-Dawley, rat, plasma, po, 200 mg/kg, rat, 24 h after single oral dose, read-out: Exposure of BAK, Plasma, single rats): 76.9 ng/g
Exposure of BAK, Plasma, single rats ([1]; rat, 24 h after single oral dose): 0.0764 µg/g and 0.0590 µg/g and 0.0546 µg/g and 0.0737 µg/g
CL of BAK [1, 3]: 470 ± 132 mL/min/kg
V of BAK [1, 3]: 184.2 ± 58.6 L/kg
t1∕2 of BAK [1, 3]: 4.71 ± 1.56 h
